Results taken from patent US10975093B2, “Fused 1,4-diazepines as BET protein degraders” (THE REGENTS OF THE UNIVERSITY OF MICHIGAN, priority 2016, dated 2021).

Experiments:
MDA-MB-231 = assay: Cell growth inhibition, CellTiter-Glo Luminescent Cell Viability Assay, MDA-MB-231; type: cell-based; conditions: Homo sapiens, MDA-MB-231, 96 h, MDA-MB-231 cells, 4 days incubation
Experimental: (§1) Cell growth inhibitory activity of representative Compounds of the Disclosure was determined in various cell lines using CellTiter-Glo® Luminescent Cell Viability Assay. Cells were seeded in 384-well white opaque cell culture plates at a density of 2,000 cells/well with serially diluted compounds and incubated at 37° C. in an atmosphere of 95% air and 5% CO2 for 4 days. Cell viability was determined using the CellTiter-Glo® Luminescent Cell Viability Assay Kit (Promega, Madison, Wis.) according to the manufacture's instruction. Briefly, a volume of CellTiter-Glo® Reagent equal to the volume of cell culture medium was added to each well, and then the plates were incubated at room temperature for 10-20 minutes. The luminescent signal was measured using a Tecan Infinite M1000 multimode microplate reader (Tecan, Morrisville, N.C.). The half maximal inhibitory concentration (IC50) was calculated using the GraphPad Prism 5 software (GraphPad Software, La Jolla, Calif.).

MOLM-13 = assay: Cell growth inhibition, CellTiter-Glo Luminescent Cell Viability Assay, MOLM-13; type: cell-based; conditions: Homo sapiens, MOLM-13, 96 h, MOLM-13 cells, 4 days incubation
Experimental: as §1

Structure (SMILES) | IC50 (MDA-MB-231) [nM] | IC50 (MOLM-13) [nM]
Cc1c(C#Cc2cnn(CCCC#Cc3cccc4c3C(=O)N(C3CCCNC3=O)C4=O)c2)sc2c1C(c1ccc(Cl)cc1)=NCc1nnc(C)n1-2 (stereo not shown) [compound 159, 4-(5-(4-((4-(4-chlorophenyl)-3,9-dimethyl-6H-thieno[3,2-f][1,2,4]triazolo[4,3-a][1,4]diazepin-2-yl)ethynyl)-1H-pyrazol-1-yl)pent-1-yn-1-yl)-2-(2-oxopiperidin-3-yl)isoindoline-1,3-dione] | > 100 | > 100
Cc1c(C#Cc2cnn(CCCCNc3cccc4c3C(=O)N(C3(F)CCC(=O)NC3=O)C4=O)c2)sc2c1C(c1ccc(Cl)cc1)=NCc1nnc(C)n1-2 (stereo not shown) [compound 144, 4-((4-(4-((4-(4-chlorophenyl)-3,9-dimethyl-6H-thieno[3,2-f][1,2,4]triazolo[4,3-a][1,4]diazepin-2-yl)ethynyl)-1H-pyrazol-1-yl)butyl)amino)-2-(3-fluoro-2,6-dioxopiperidin-3-yl)isoindoline-1,3-dione] | 10.1 | 6.8
Cc1c(C#Cc2cnn(CCCn3cnc(COc4cccc5c4C(=O)N(C4CCC(=O)NC4=O)C5=O)c3)c2)sc2c1C(c1ccc(Cl)cc1)=NCc1nnc(C)n1-2 (stereo not shown) [compound 155, 4-((1-(3-(4-((4-(4-chlorophenyl)-3,9-dimethyl-6H-thieno[3,2-f][1,2,4]triazolo[4,3-a][1,4]diazepin-2-yl)ethynyl)-1H-pyrazol-1-yl)propyl)-1H-imidazol-4-yl)methoxy)-2-(2,6-dioxopiperidin-3-yl)isoindoline-1,3-dione] | > 100 | > 100
Cc1c(C#Cc2cnn(CCn3cnc(COc4cccc5c4C(=O)N(C4CCC(=O)NC4=O)C5=O)c3)c2)sc2c1C(c1ccc(Cl)cc1)=NCc1nnc(C)n1-2 (stereo not shown) [compound 153, 4-((1-(2-(4-((4-(4-chlorophenyl)-3,9-dimethyl-6H-thieno[3,2-f][1,2,4]triazolo[4,3-a][1,4]diazepin-2-yl)ethynyl)-1H-pyrazol-1-yl)ethyl)-1H-imidazol-4-yl)methoxy)-2-(2,6-dioxopiperidin-3-yl)isoindoline-1,3-dione] | > 100 | > 100
Cc1ncsc1-c1ccc([C@H](C)NC(=O)[C@@H]2C[C@@H](O)CN2C(=O)[C@@H](NC(=O)COCCCn2cc(C#Cc3sc4c(c3C)C(c3ccc(Cl)cc3)=N[C@@H](C)c3nnc(C)n3-4)cn2)C(C)(C)C)cc1 [compound 199, (2S,4R)-1-((S)-2-(2-(3-(4-(((S)-4-(4-chlorophenyl)-3,6,9-trimethyl-6H-thieno[3,2-f][1,2,4]triazolo[4,3-a][1,4]diazepin-2-yl)ethynyl)-1H-pyrazol-1-yl)propoxy)acetamido)-3,3-dimethylbutanoyl)-4-hydroxy-N-((S)-1-(4-(4-methylthiazol-5-yl)phenyl)ethyl)pyrrolidine-2-carboxamide] | 6.7 | 0.5 ± 0.06
Cc1c(C#Cc2cnn(CCCN3CCC(Nc4cccc5c4CN(C4CCC(=O)NC4=O)C5=O)CC3)c2)sc2c1C(c1ccc(Cl)cc1)=N[C@@H](CC(=O)N1CCN(C)CC1)c1nnc(C)n1-2 (stereo partly drawn) [compound 192, 3-(4-((1-(3-(4-(((S)-4-(4-chlorophenyl)-3,9-dimethyl-6-(2-(4-methylpiperazin-1-yl)-2-oxoethyl)-6H-thieno[3,2-f][1,2,4]triazolo[4,3-a][1,4]diazepin-2-yl)ethynyl)-1H-pyrazol-1-yl)propyl)piperidin-4-yl)amino)-1-oxoisoindolin-2-yl)piperidine-2,6-dione] | 0.08 | 0.07
Cc1ncsc1-c1ccc([C@H](C)NC(=O)[C@@H]2C[C@@H](O)CN2C(=O)[C@@H](NC(=O)COCCOCCn2cc(C#Cc3sc4c(c3C)C(c3ccc(Cl)cc3)=N[C@@H](C)c3nnc(C)n3-4)cn2)C(C)(C)C)cc1 [compound 201, (2S,4R)-1-((S)-2-(2-(2-(2-(4-(((S)-4-(4-chlorophenyl)-3,6,9-trimethyl-6H-thieno[3,2-f][1,2,4]triazolo[4,3-a][1,4]diazepin-2-yl)ethynyl)-1H-pyrazol-1-yl)ethoxy)ethoxy)acetamido)-3,3-dimethylbutanoyl)-4-hydroxy-N-((S)-1-(4-(4-methylthiazol-5-yl)phenyl)ethyl)pyrrolidine-2-carboxamide] | 24.9 | 2.1 ± 0.32
Cc1c(C#Cc2cnn(CCOCCOCCOCC#Cc3cccc4c3CN(C3CCC(=O)NC3=O)C4=O)c2)sc2c1C(c1ccc(Cl)cc1)=N[C@@H](CC(=O)N1CCN(C)CC1)c1nnc(C)n1-2 (stereo partly drawn) [compound 197, 3-(4-(3-(2-(2-(2-(4-(((S)-4-(4-chlorophenyl)-3,9-dimethyl-6-(2-(4-methylpiperazin-1-yl)-2-oxoethyl)-6H-thieno[3,2-f][1,2,4]triazolo[4,3-a][1,4]diazepin-2-yl)ethynyl)-1H-pyrazol-1-yl)ethoxy)ethoxy)ethoxy)prop-1-yn-1-yl)-1-oxoisoindolin-2-yl)piperidine-2,6-dione] | 2.5 | 1.1

The next lines start with the values.

IC50 (MDA-MB-231) [nM] | IC50 (MOLM-13) [nM] | Structure (SMILES)
0.2 | 0.9 | Cc1c(C#Cc2cnn(CCCC#Cc3ccc4c(c3)CN(C3CCC(=O)NC3=O)C4=O)c2)sc2c1C(c1ccc(Cl)cc1)=N[C@@H](C)c1nnc(C)n1-2 (stereo partly drawn) [compound 179, 3-(5-(5-(4-(((S)-4-(4-chlorophenyl)-3,6,9-trimethyl-6H-thieno[3,2-f][1,2,4]triazolo[4,3-a][1,4]diazepin-2-yl)ethynyl)-1H-pyrazol-1-yl)pent-1-yn-1-yl)-1-oxoisoindolin-2-yl)piperidine-2,6-dione]
0.1 | 0.2 | Cc1c(C#Cc2cnn(CCCNc3ccc4c(c3)CN(C3CCC(=O)NC3=O)C4=O)c2)sc2c1C(c1ccc(Cl)cc1)=N[C@@H](C)c1nnc(C)n1-2 (stereo partly drawn) [compound 185, 3-(5-((3-(4-(((S)-4-(4-chlorophenyl)-3,6,9-trimethyl-6H-thieno[3,2-f][1,2,4]triazolo[4,3-a][1,4]diazepin-2-yl)ethynyl)-1H-pyrazol-1-yl)propyl)amino)-1-oxoisoindolin-2-yl)piperidine-2,6-dione]
52.7 | 18.6 | Cc1c(C#Cc2cnn(CCCC#Cc3ccc4c(c3)C(=O)N(C3CCC(=O)NC3=O)C4=O)c2)sc2c1C(c1ccc(Cl)cc1)=NCc1nnc(C)n1-2 (stereo not shown) [compound 157, 5-(5-(4-((4-(4-chlorophenyl)-3,9-dimethyl-6H-thieno[3,2-f][1,2,4]triazolo[4,3-a][1,4]diazepin-2-yl)ethynyl)-1H-pyrazolo-1-yl)pent-1-yn-1-yl)-2-(2,6-dioxopiperidin-3-yl)isoindoline-1,3-dione]
0.6 | 0.9 | Cc1c(C#Cc2ccc(CCCC#Cc3cccc4c3CN(C3CCC(=O)NC3=O)C4=O)nc2)sc2c1C(c1ccc(Cl)cc1)=N[C@@H](C)c1nnc(C)n1-2 (stereo partly drawn) [compound 166, 3-(4-(5-(5-(((S)-4-(4-chlorophenyl)-3,6,9-trimethyl-6H-thieno[3,2-f][1,2,4]triazolo[4,3-a][1,4]diazepin-2-yl)ethynyl)pyridin-2-yl)pent-1-yn-1-yl)-1-oxoisoindolin-2-yl)piperidine-2,6-dione]
0.1 | 0.5 | Cc1c(C#Cc2cnn(CCCCNc3ccc4c(c3)CN(C3CCC(=O)NC3=O)C4=O)c2)sc2c1C(c1ccc(Cl)cc1)=N[C@@H](C)c1nnc(C)n1-2 (stereo partly drawn) [compound 184, 3-(5-((4-(4-(((S)-4-(4-chlorophenyl)-3,6,9-trimethyl-6H-thieno[3,2-f][1,2,4]triazolo[4,3-a][1,4]diazepin-2-yl)ethynyl)-1H-pyrazol-1-yl)butyl)amino)-1-oxoisoindolin-2-yl)piperidine-2,6-dione]
0.04 | 0.2 | Cc1c(C#Cc2cnn(CCCCCc3ccc4c(c3)CN(C3CCC(=O)NC3=O)C4=O)c2)sc2c1C(c1ccc(Cl)cc1)=N[C@@H](C)c1nnc(C)n1-2 (stereo partly drawn) [compound 180, 3-(5-(5-(4-(((S)-4-(4-chlorophenyl)-3,6,9-trimethyl-6H-thieno[3,2-f][1,2,4]triazolo[4,3-a][1,4]diazepin-2-yl)ethynyl)-1H-pyrazol-1-yl)pentyl)-1-oxoisoindolin-2-yl)piperidine-2,6-dione]
0.67 | 0.42 | Cc1c(C#Cc2cnn(CCCCN3CCC(Nc4cccc5c4CN(C4CCC(=O)NC4=O)C5=O)CC3)c2)sc2c1C(c1ccc(Cl)cc1)=NCc1nnc(C)n1-2 (stereo not shown) [compound 149, 3-(4-((1-(4-(4-((4-(4-chlorophenyl)-3,9-dimethyl-6H-thieno[3,2-f][1,2,4]triazolo[4,3-a][1,4]diazepin-2-yl)ethynyl)-1H-pyrazol-1-yl)butyl)piperidin-4-yl)amino)-1-oxoisoindolin-2-yl)piperidine-2,6-dione]
58.8 | 42.6 | Cc1c(C#Cc2cnn(CCCC#Cc3cccc4c3C(=O)N(C3CCCNC3=O)C4=O)c2)sc2c1C(c1ccc(Cl)cc1)=N[C@@H](C)c1nnc(C)n1-2 (stereo partly drawn) [compound 160, 4-(5-(4-(((S)-4-(4-chlorophenyl)-3,6,9-trimethyl-6H-thieno[3,2-f][1,2,4]triazolo[4,3-a][1,4]diazepin-2-yl)ethynyl)-1H-pyrazol-1-yl)pent-1-yn-1-yl)-2-(2-oxopiperidin-3-yl)isoindoline-1,3-dione]
1.5 | 0.35 | Cc1c(C#Cc2cnn(CCN3CC(CNc4cccc5c4CN(C4CCC(=O)NC4=O)C5=O)C3)c2)sc2c1C(c1ccc(Cl)cc1)=N[C@@H](C)c1nnc(C)n1-2 (stereo partly drawn) [compound 175, 3-(4-(((1-(2-(4-(((S)-4-(4-chlorophenyl)-3,6,9-trimethyl-6H-thieno[3,2-f][1,2,4]triazolo[4,3-a][1,4]diazepin-2-yl)ethynyl)-1H-pyrazol-1-yl)ethyl)azetidin-3-yl)methyl)amino)-1-oxoisoindolin-2-yl)piperidine-2,6-dione]
